Test results published in patent US6361995B1, “Protection of pancreatic β-cells during islet isolation and assessment of islet viability and candidate diabetes drugs after islet isolation” (NAB Research Foundation, priority 1999, dated 2002).

How the values were obtained:
[1] = tested on: β-TC3 cells; experiment: Protein O-glycosylation in β-TC3 cells (RL2 immunoprecipitation and Western blotting); type: cell-based; conditions: 5 mM, 60 min after 30 min in 0 mM glucose (FIG. 8)
Protocol: β-TC3 cells (passage 37) were obtained form the University of Pennsylvania Diabetes Center from Dr. D. Hanahan (University of California, San Francisco). β-TC3 cells were cultured in 10-cm dishes in the presence of RPMI 1640 medium supplemented with 10% fetal bovine serum, penicillin (75 μg/ml), streptomycin (50 μg/ml), and 2 mM L-glutamine. Cells were trypsinized and subcloned weekly. Media were changed twice weekly and on the day prior to an experiment, and insulin responsiveness to glucose and carbachol was routinely monitored. Cells were used between passages 38 and 55.
β-TC3 cells in 10-cm dishes were washed three times in Krebs'-HEPES buffer (25 mM HEPES, pH 7.40, 115 mM NaCl, 24 mM NaHCO3, 5 mM KCl, 2.5 mM CaCl2, 1 mM MgCl2) supplemented with 0.1% bovine serum albumin and 1 mM L-glutamine. Cells were pre-incubated in 5 ml of the same buffer for 30 min at 37° C. under an atmosphere of 95% air/5% CO2. After 30 min, the pre-incubation buffer was aspirated and cells were incubated at 37° C. under an atmosphere of 95% air/5% CO2 with 5 ml of Krebs'-HEPES buffer supplemented with the appropriate secretagogue. At the end of the incubation period, supernatant was removed for insulin radioimmunoassay. Cells left in the dishes were processed for subsequent immunoprecipitation as described below.
At the end of the experiment, all supernatant was removed from the tubes or dishes. […]

[2] = tested on: isolated islets; experiment: Insulin secretion from isolated islets (radioimmunoassay); type: cell-based, rat; conditions: for Insulin (secretion in isolated islets): islets isolated in 11 mM glucose and 1 mM L-glutamine
Protocol: (§1) In a typical experiment, islets were isolated aseptically from 3-4 male Sprague-Dawley rats. During surgery, the common bile duct of each pancreas was cannulated, and the pancreas was inflated with 20 ml of Hank's Balanced Salt Solution (HBSS). The distended pancreas was excised, and lymph nodes, fat, blood vessels, and bile ducts were removed under a stereo dissecting microscope. Tissue was chopped extensively and rinsed 5-6 times with HBSS. The tissue was digested with collagenase P (3 mg/ml tissue) at 37° C. for 3-4 min using a wrist action shaker. Digested tissue was rinsed 3-4 times with HBSS, and islets were purified on a discontinuous Ficoll gradient consisting of 27%, 23%, 20.5%, and 11% Ficoll in (25 mM) HEPES-HBSS buffer. Islets were harvested from the gradient and washed once with HBSS. Islets were washed 6 times in DMEM supplemented with 25 mM HEPES pH 7.40, 25 mM NaHCO3, 0.1% bovine serum albumin, 3 mM glucose, and 1 mM L-glutamine (complete DMEM). This isolation procedure typically provided 300-400 islets per rat, which were then used as described below. In selected experiments, islets were isolated as described above, except that all isolation buffers were supplemented t o contain 11 mM glucose and 1 mM L-glutamine.
(§2) Freshly isolated islets were placed into siliconized 16×100-mm round bottom, screw-cap tubes and pre-incubated for 30 min in 1 ml of complete DMEM. For each experiment, 100 islets were placed into each tube. Pre-incubation and all subsequent incubations were performed at 37° C. under an atmosphere of 95% O2/5% CO2. After 30 min, pre-incubation buffer was aspirated, and islets were incubated with complete DMEM supplemented with the appropriate secretagogue. At the end of the incubation period, the entire supernatant was removed for insulin radioimmunoassay. Islets were processed for subsequent immunoprecipitation as described below. For each experiment, insulin secretion in the control sample was set at 100% and all other results were expressed as percentages of control.
Films were photographed using a Sony digital camera, and intensities of bands present on films were quantitated using the program NIH Image. All results are expressed as the mean±SEM, using the Windows-compatible version 2.98 of the program FigP (Biosoft, St. Louis, Mo.). Statistical analysis was performed using the same program. Data were analyzed by one-way analysis of variance followed by multiple comparisons between the means using the least significant difference test. A probability of p<0.05 was considered to indicate statistical significance.

[3] = tested on: p135 (135 kD O-glycosylated protein) in isolated islets; experiment: p135 O-glycosylation in isolated islets (RL2 immunoprecipitation and Western blotting); type: cell-based, rat; conditions: for increase in p135 O-glycosylation: 5 mM, 60 min, islets isolated in 11 mM glucose and 1 mM L-glutamine; for effect on glucose-induced p135 O-glycosylation: 100 μM DON with 28 mM glucose
Protocol: as §1, §2
At the end of the experiment, all supernatant was removed from the tubes or dishes. One ml of ice-cold lysis buffer (50 mM HEPES, pH 7.40, 150 mM NaCl, 1% Triton X-100, 5 mM EDTA, 5 mM EGTA, 20 mM NaF, 20 mM Na4P2O7, 1 mM NaVO4, 1 mg/ml bacitracin, 1 mM phenylmethylsulfonylfluoride, 1 μg/ml leupeptin, 1 μg/ml aprotinin) was added to each tube or dish. Cells were scraped on ice into 1.5 ml conical screw cap Eppendorf tubes. Borosilicate tubes containing islets were vortexed for 30 sec and placed on ice for 30 min. Islet samples were vortexed for an additional minute before transfer to 1.5-ml conical screw cap Eppendorf tubes. All subsequent immunoprecipitation steps were performed at 4° C. Samples were centrifuged at 10,000×g for 15 min. The supernatant was transferred to a second 1.5-ml conical Eppendorf tube, and O-glycosylated proteins were immunoprecipitated for 2 h on a rocker with 2 μl of mouse monoclonal RL2 antibody, which selectively binds to O-glycosylated protein (21,22). After 2 h, 20 μl of protein A trisacryl beads (Pierce) preadsorbed with 20 μg of rabbit anti-mouse antibody (Sigma) were added to the tubes and the incubation was continued for an additional 2 hours. At the end of the incubation, beads were washed once with Wash Buffer 1 (150 mM NaCl, 10 mM HEPES, pH 7.40, 1% Triton X-100, and 0.1% SDS) and once with Wash Buffer 2 (10 mM HEPES, pH 7.40, 1% Triton X-100, and 0.1% SDS). After the final washing step, 25 μl of 2× sample buffer (100 mM Tris, pH 6.80, 4% SDS, 20% glycerol, and 20 μg/liter bromophenol blue) was added to each tube. Samples were vortexed for 30 sec, boiled for 5 min, and stored at −20° C. prior to subsequent analysis.
Samples were loaded onto 7.5% SDS-polyacrylamide gels. Colored molecular weight markers (Amersham) were run on each gel. Proteins were separated for 1 h at 175 V at room temperature using a Bio-Rad Mini-PROTEAN II dual slab cell. […]

[4] = tested on: β-cells; conditions: 50-100 mg/kg administered to a rat; development of diabetes; cited from earlier work
[5] = tested on: RL2 antibody binding to p135; experiment: Blocking of RL2 antibody immunoprecipitation of p135 by added sugars; design: species or system mouse; conditions: 0.3 M added during the RL2 immunoprecipitation step (FIG. 3)
Protocol: Islets (100/condition) were incubated for 60 min with either 3 mM glucose (G3) or 28 mM glucose following pre-incubation with 5 mM streptozotocin (STZ). At the end of the incubation period, O-glycosylated proteins were immunoprecipitated with RL2 antibody in the presence of 0.3 M N-acetylglucosamine (GlcNAc), 0.3 M N-acetylgalactosamine (GalNAc), or 0.3 M glucosamine (GlcN) and analyzed by Western blotting as described in FIG. 1.
At the end of the experiment, all supernatant was removed from the tubes or dishes. One ml of ice-cold lysis buffer (50 mM HEPES, pH 7.40, 150 mM NaCl, 1% Triton X-100, 5 mM EDTA, 5 mM EGTA, 20 mM NaF, 20 mM Na4P2O7, 1 mM NaVO4, 1 mg/ml bacitracin, 1 mM phenylmethylsulfonylfluoride, 1 μg/ml leupeptin, 1 μg/ml aprotinin) was added to each tube or dish. Cells were scraped on ice into 1.5 ml conical screw cap Eppendorf tubes. Borosilicate tubes containing islets were vortexed for 30 sec and placed on ice for 30 min. Islet samples were vortexed for an additional minute before transfer to 1.5-ml conical screw cap Eppendorf tubes. All subsequent immunoprecipitation steps were performed at 4° C. Samples were centrifuged at 10,000×g for 15 min. […]

Structure (SMILES): CN(N=O)C(=O)N[C@H]1C(O)O[C@H](CO)[C@@H](O)[C@@H]1O (mixture of isomers) [streptozotocin]
- O-glycosylation response of β-TC3 cells [1]: fail to undergo increased O-glycosylation
- Insulin (secretion in isolated islets) ([2]; 5 mM, DON 0, 60 min, control 3 mM glucose = 100): 147.1 ± 16.8%
- Insulin (secretion in isolated islets) ([2]; 5 mM, DON 100 (μM), 60 min, control 3 mM glucose = 100): 115.6 ± 7.8%
- reversibility of p135 O-glycosylation ([3]; 5 mM pre-incubation 30 min, then 3 or 28 mM glucose 30 min, then 3 mM glucose 30 min (FIG. 5)): not readily reversible
- stimulation of p135 O-glycosylation in the presence of DON ([3]; 5 mM with 100 μM DON, 60 min (FIG. 4)): able to increase p135 O-glycosylation
- increase in p135 O-glycosylation ([3]; compared to 3 mM glucose control (FIG. 7 experiment)): 361.3±78.8%
- increase in p135 O-glycosylation ([3]; versus 3 mM glucose control (FIG. 2)): 333.9±66.8%
- stimulation of p135 O-glycosylation ([3]; islets isolated in low glucose and no added L-glutamine, concentration not given): no consistent increase in p135 O-glycosylation
- time to death of most of the β-cells [4]: ≤ 8 h

Structure (SMILES): [N-]=[N+]=CC(=O)CC[C@H](N)C(=O)O [DON, 6-diazo-5-oxonorleucine]
- effect on glucose-induced insulin secretion ([2]; 100 μM DON with 28 mM glucose, 60 min): no significant effect
- Insulin (secretion in isolated islets) ([2]; DON 100 (μM) in 3 mM glucose, 60 min, control 3 mM glucose without DON = 100): 160.6 ± 50.5%
- effect on glucose-induced p135 O-glycosylation ([3]; 60 min (FIG. 4)): inhibited
- effect on glucose-induced p135 O-glycosylation ([3]; 60 min (FIG. 4), listed as 5-diazo-oxo-norleucine): completely blocked

Structure (SMILES): CC(=O)N[C@H]1C(O)O[C@H](CO)[C@H](O)[C@@H]1O (stereo partly drawn) [GalNAc, N-acetylgalactosamine]
- inhibition of RL2 immunoprecipitation of p135 [5]: neither GalNAc nor glucosamine added at the same concentration as GlcNAc prevented

Structure (SMILES): CC(=O)N[C@H]1C(O)O[C@H](CO)[C@@H](O)[C@@H]1O (stereo partly drawn) [GlcNAc, N-acetylglucosamine]
- inhibition of RL2 immunoprecipitation of p135 [5]: completely inhibited
